Usually Ki stands for the dissociation constant of the complex between target and ligand, obtained from inhibition or displacement. The low end stands for higher affinity, the high end for lower affinity.

In assay [1] the target is T1, human LSECtin CRD (Homo sapiens, UniProt Q6UXB4).
T1 sequence (Q6UXB4 165-293 limits assumed): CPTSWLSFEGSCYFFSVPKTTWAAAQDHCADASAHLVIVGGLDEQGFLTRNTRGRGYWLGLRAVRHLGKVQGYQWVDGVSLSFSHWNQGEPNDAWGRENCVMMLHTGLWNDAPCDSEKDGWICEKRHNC
The format is binding.

Assay [2] addresses T2, mouse LSECtin CRD (Mus musculus, UniProt Q8BNX1).
T2 sequence (Q8BNX1 161-294): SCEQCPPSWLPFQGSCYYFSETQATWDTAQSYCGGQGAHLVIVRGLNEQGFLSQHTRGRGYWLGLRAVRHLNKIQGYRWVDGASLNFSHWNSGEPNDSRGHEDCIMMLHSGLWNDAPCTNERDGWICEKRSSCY
The format is binding.

The structures appear in SMILES notation.

On to `CC(=O)N[C@H]1[C@H](O[C@@H]2C(O)O[C@H](CO)[C@@H](O)[C@@H]2O)O[C@H](CO)[C@@H](O)[C@@H]1O` (some centres unmarked) [GlcNAcβ1-2Man], for which the values for the Ki in assay [1] and in assay [2] were 1.1 ± 0.5 µM and 10.2 ± 0.8 µM, respectively.

The values are drawn from publication PMC3091528 (Glycobiology, 2011).
